In ChEMBL document CHEMBL4382259, “Synthesis of novel guttiferone E and xanthochymol derivatives with cytotoxicities by inducing cell apoptosis and arresting the cell cycle phase” (Eur J Med Chem, 2019):
Values belong to the compound of their own block, whether it stands above or below them. Calls of active or inactive are those of the source. No cut-off for these calls is given here.

Columns and labels:
[1] = tested on: HEL; assay: Down regulation of full-length PARP1 expression in HEL cells at 2.5 to 10 uM after 24 hrs by Western blot analysis; type: functional, cell-based; settings: Homo sapiens
[2] = tested on: HEL; assay: Induction of apoptosis in HEL cells assessed as late apoptotic cells at 2.5 uM after 24 hrs by Annexin V-FITC/propidium iodide staining based flow cytometry (reference value: 1.2%); type: functional, Homo sapiens
[3] = tested on: HEL; assay: Induction of apoptosis in HEL cells assessed as viable cells at 5 uM after 48 hrs by Annexin V-FITC/propidium iodide staining based flow cytometry (reference value: 88.3%); type: functional; settings: Homo sapiens, read-out: Activity
[4] = tested on: HEL; assay: Induction of morphological changes in HEL cells assessed as cell shrinkage at 5 uM after 48 hrs by microscopic analysis; type: functional, cell-based; settings: Homo sapiens
[5] = tested on: HEL; assay: Induction of apoptosis in HEL cells assessed as viable cells at 5 uM after 24 hrs by Annexin V-FITC/propidium iodide staining based flow cytometry (reference value: 88.6%); type: functional; settings: Homo sapiens, read-out: Activity
[6] = tested on: K562; assay: Antiproliferative activity against human K562 cells after 72 hrs by MTT assay; type: functional, cell-based; settings: K562, 72 h
[7] = tested on: HEL; assay: Cell cycle arrest in HEL cells assessed as accumulation at G0/G1 phase at 5 uM after 48 hrs propidium iodide staining based flow cytometry (reference value: 37.72%); type: functional, Homo sapiens
[8] = tested on: MCF7; assay: Antiproliferative activity against human MCF7 cells after 72 hrs by MTT assay; type: functional, cell-based; settings: MCF7, 72 h
[9] = tested on: HEL; assay: Induction of morphological changes in HEL cells assessed as cell fragmentation at 5 uM after 48 hrs by microscopic analysis; type: functional, cell-based; settings: Homo sapiens
[10] = tested on: HEL; assay: Induction of apoptosis in HEL cells assessed as early apoptotic cells at 5 uM after 48 hrs by Annexin V-FITC/propidium iodide staining based flow cytometry (reference value: 8%); type: functional, Homo sapiens
[11] = tested on: HEL; assay: Induction of apoptosis in HEL cells assessed as necrotic cells at 10 uM after 48 hrs by Annexin V-FITC/propidium iodide staining based flow cytometry (reference value: 0.5%); type: functional, Homo sapiens
[12] = tested on: HEL; assay: Up regulation of cleaved caspase3 expression in HEL cells at 2.5 to 10 uM after 24 hrs by Western blot analysis; type: functional, cell-based; settings: Homo sapiens
[13] = tested on: HeLa; assay: Antiproliferative activity against human HeLa cells after 72 hrs by MTT assay; type: functional, cell-based
[14] = tested on: HEL; assay: Induction of apoptosis in HEL cells assessed as necrotic cells at 2.5 uM after 48 hrs by Annexin V-FITC/propidium iodide staining based flow cytometry (reference value: 0.5%); type: functional, Homo sapiens
[15] = tested on: HEL; assay: Induction of apoptosis in HEL cells assessed as late apoptotic cells at 5 uM after 48 hrs by Annexin V-FITC/propidium iodide staining based flow cytometry (reference value: 3.3%); type: functional, Homo sapiens
[16] = tested on: HEL; assay: Induction of cell death in HEL cells at 10 uM after 48 hrs by microscopic analysis; type: functional, cell-based; settings: Homo sapiens
[17] = tested on: HEL; assay: Induction of apoptosis in HEL cells assessed as early apoptotic cells at 2.5 uM after 24 hrs by Annexin V-FITC/propidium iodide staining based flow cytometry (reference value: 9.9%); type: functional, Homo sapiens
[18] = tested on: A549; assay: Antiproliferative activity against human A549 cells after 72 hrs by MTT assay; type: functional, cell-based; settings: A549, 72 h
[19] = tested on: HEL; assay: Induction of apoptosis in HEL cells assessed as necrotic cells at 5 uM after 48 hrs by Annexin V-FITC/propidium iodide staining based flow cytometry (reference value: 0.5%); type: functional, Homo sapiens
[20] = tested on: HEL; assay: Induction of apoptosis in HEL cells assessed as early apoptotic cells at 2.5 uM after 48 hrs by Annexin V-FITC/propidium iodide staining based flow cytometry (reference value: 8%); type: functional, Homo sapiens
[21] = tested on: HEL; assay: Induction of apoptosis in HEL cells assessed as necrotic cells at 5 uM after 24 hrs by Annexin V-FITC/propidium iodide staining based flow cytometry (reference value: 0.2%); type: functional, Homo sapiens
[22] = tested on: HEL; assay: Cell cycle arrest in HEL cells assessed as accumulation at S phase at 5 uM after 48 hrs propidium iodide staining based flow cytometry (reference value: 45.65%); type: functional, Homo sapiens
[23] = tested on: HEL; assay: Induction of apoptosis in HEL cells assessed as early apoptotic cells at 5 uM after 24 hrs by Annexin V-FITC/propidium iodide staining based flow cytometry (reference value: 9.9%); type: functional, Homo sapiens
[24] = tested on: HEL; assay: Down regulation of cyclin D1 expression in HEL cells at 2.5 to 10 uM after 24 hrs by Western blot analysis; type: functional, cell-based; settings: Homo sapiens
[25] = tested on: HEL; assay: Induction of apoptosis in HEL cells assessed as late apoptotic cells at 2.5 uM after 48 hrs by Annexin V-FITC/propidium iodide staining based flow cytometry (reference value: 3.3%); type: functional, Homo sapiens
[26] = tested on: HEL; assay: Induction of apoptosis in HEL cells assessed as late apoptotic cells at 10 uM after 24 hrs by Annexin V-FITC/propidium iodide staining based flow cytometry (reference value: 1.2%); type: functional, Homo sapiens
[27] = tested on: HEL; assay: Induction of apoptosis in HEL cells assessed as early apoptotic cells at 10 uM after 48 hrs by Annexin V-FITC/propidium iodide staining based flow cytometry (reference value: 8%); type: functional, Homo sapiens
[28] = tested on: HEL; assay: Down regulation of Bcl2 expression in HEL cells after 24 hrs by Western blot analysis; type: functional, cell-based; settings: Homo sapiens
[29] = tested on: HEL; assay: Cell cycle arrest in HEL cells assessed as accumulation at G2/M phase at 5 uM after 48 hrs propidium iodide staining based flow cytometry (reference value: 14.33%); type: functional, Homo sapiens
[30] = tested on: HEL; assay: Up regulation of Bax expression in HEL cells after 24 hrs by Western blot analysis; type: functional, cell-based; settings: Homo sapiens
[31] = tested on: HEL; assay: Induction of apoptosis in HEL cells assessed as necrotic cells at 10 uM after 24 hrs by Annexin V-FITC/propidium iodide staining based flow cytometry (reference value: 0.2%); type: functional, Homo sapiens
[32] = tested on: HEL; assay: Induction of apoptosis in HEL cells assessed as late apoptotic cells at 5 uM after 24 hrs by Annexin V-FITC/propidium iodide staining based flow cytometry (reference value: 1.2%); type: functional, Homo sapiens
[33] = tested on: HEL; assay: Induction of apoptosis in HEL cells assessed as necrotic cells at 2.5 uM after 24 hrs by Annexin V-FITC/propidium iodide staining based flow cytometry (reference value: 0.2%); type: functional, Homo sapiens
[34] = tested on: HEL; assay: Induction of apoptosis in HEL cells assessed as viable cells at 2.5 uM after 24 hrs by Annexin V-FITC/propidium iodide staining based flow cytometry (reference value: 88.6%); type: functional; settings: Homo sapiens, read-out: Activity
[35] = tested on: HEL; assay: Induction of apoptosis in HEL cells assessed as early apoptotic cells at 10 uM after 24 hrs by Annexin V-FITC/propidium iodide staining based flow cytometry (reference value: 9.9%); type: functional, Homo sapiens
[36] = tested on: HEL; assay: Induction of apoptosis in HEL cells assessed as viable cells at 10 uM after 48 hrs by Annexin V-FITC/propidium iodide staining based flow cytometry (reference value: 88.3%); type: functional; settings: Homo sapiens, read-out: Activity
[37] = tested on: HEL; assay: Induction of apoptosis in HEL cells assessed as late apoptotic cells at 10 uM after 48 hrs by Annexin V-FITC/propidium iodide staining based flow cytometry (reference value: 3.3%); type: functional, Homo sapiens
[38] = tested on: HEL; assay: Induction of apoptosis in HEL cells assessed as viable cells at 10 uM after 24 hrs by Annexin V-FITC/propidium iodide staining based flow cytometry (reference value: 88.6%); type: functional; settings: Homo sapiens, read-out: Activity
[39] = tested on: HEL; assay: Induction of morphological changes in HEL cells at 2.5 uM after 48 hrs by microscopic analysis; type: functional, cell-based; settings: Homo sapiens
[40] = tested on: HEL; assay: Induction of apoptosis in HEL cells assessed as viable cells at 2.5 uM after 48 hrs by Annexin V-FITC/propidium iodide staining based flow cytometry (reference value: 88.3%); type: functional; settings: Homo sapiens, read-out: Activity
[41] = tested on: HEL; assay: Antiproliferative activity against HEL cells after 72 hrs by MTT assay; type: functional, cell-based; settings: Homo sapiens

Compound: CC(C)=CC[C@H]1C[C@]23C[C@@H](CC=C(C)C)C(C)(C)[C@H]4CCC(C)(C)O[C@]42OC(=O)C(C(=O)c2ccc(O)c(O)c2)=C3OC1(C)C
Activity [1]: Active
Activity [2]: 2.3%
viability at 5 µM [3]: 72.6%
Activity [4]: Active
viability at 5 µM [5]: 80.9%
IC50 [6]: 7.69 µM
Activity [7]: 59.29%
IC50 [8]: 13.5 µM
Activity [9]: Active
Activity [10]: 21%
Activity [11]: 2.4%
Activity [12]: Active
IC50 [13]: > 20 µM
Activity [14]: 1.6%
Activity [15]: 5.8%
Activity [16]: Active
Activity [17]: 10.6%
IC50 [18]: > 20 µM
Activity [19]: 0.6%
Activity [20]: 7.2%
Activity [21]: 0.4%
Activity [22]: 28.81%
Activity [23]: 15.3%
Activity [24]: Active
Activity [25]: 6.4%
Activity [26]: 3%
Activity [27]: 32.5%
Activity [28]: Dose-dependent effect
Activity [29]: 10.76%
Activity [30]: Dose-dependent effect
Activity [31]: 0.8%
Activity [32]: 3.3%
Activity [33]: 0.4%
viability at 2.5 µM [34]: 86.6%
Activity [35]: 34.6%
viability at 10 µM [36]: 49.2%
Activity [37]: 15.9%
viability at 10 µM [38]: 61.6%
Activity [39]: Active
viability at 2.5 µM [40]: 84.8%
IC50 [41]: 4.79 µM

Compound: CCCCCCCC(=O)Oc1ccc(C(=O)C2=C3OC(C)(C)[C@@H](CC=C(C)C)C[C@@]34C[C@@H](CC=C(C)C)C(C)(C)[C@H]3CCC(C)(C)O[C@]34OC2=O)cc1OC(=O)CCCCCCC
IC50 [6]: > 20 µM
IC50 [8]: > 20 µM
IC50 [13]: > 20 µM
IC50 [18]: > 20 µM
IC50 [41]: > 20 µM

Compound: CC(C)=CC[C@H]1C[C@@]23C[C@@H](CC=C(C)C)C(C)(C)[C@@](CC=C(C)C)(C(=O)C(C(=O)c4ccc(OCCCCCN5CCOCC5)c(OCCCCCN5CCOCC5)c4)=C2OC1(C)C)C3=O
IC50 [6]: > 20 µM
IC50 [8]: > 20 µM
IC50 [13]: 5 µM
IC50 [18]: > 20 µM
IC50 [41]: > 20 µM

Compound: CC(C)=CC[C@H]1C[C@]23C[C@@H](CC=C(C)C)C(C)(C)[C@H]4CCC(C)(C)O[C@]42OC(=O)C(C(=O)c2ccc(OC(=O)c4ccc(Br)cc4)c(OC(=O)c4ccc(Br)cc4)c2)=C3OC1(C)C
IC50 [6]: > 20 µM
IC50 [8]: > 20 µM
IC50 [13]: > 20 µM
IC50 [18]: > 20 µM
IC50 [41]: > 20 µM

Further lines, with some results ahead:

IC50 [6]: > 20 µM
IC50 [8]: > 20 µM
IC50 [13]: > 20 µM
IC50 [18]: > 20 µM
Compound: CC(C)=CC[C@H]1C[C@@]23C[C@@H](CC=C(C)C)C(C)(C)[C@@](CC=C(C)C)(C(=O)C(C(=O)c4ccc(OC(=O)c5ccccc5)c(OC(=O)c5ccccc5)c4)=C2OC1(C)C)C3=O
IC50 [41]: > 20 µM

IC50 [6]: > 20 µM
IC50 [8]: 7.56 µM
IC50 [13]: 11.3 µM
IC50 [18]: 17.2 µM
Compound: CCN(CC)CCCCCOc1ccc(C(=O)C2=C3OC(C)(C)[C@@H](CC=C(C)C)C[C@@]34C[C@@H](CC=C(C)C)C(C)(C)[C@@](CC=C(C)C)(C2=O)C4=O)cc1OCCCCCN(CC)CC
IC50 [41]: > 20 µM

IC50 [6]: > 20 µM
IC50 [8]: 15.1 µM
IC50 [13]: 10.6 µM
IC50 [18]: > 20 µM
Compound: CC(C)=CC[C@H]1C[C@@]23C[C@@H](CC=C(C)C)C(C)(C)[C@@](CC=C(C)C)(C(=O)C(C(=O)c4ccc(OCc5ccccc5)c(OCc5ccccc5)c4)=C2OC1(C)C)C3=O
IC50 [41]: > 20 µM

IC50 [6]: > 20 µM
IC50 [8]: 3.15 µM
IC50 [13]: 6.25 µM
IC50 [18]: 9.53 µM
Compound: CC(C)=CC[C@H]1C[C@@]23C[C@@H](CC=C(C)C)C(C)(C)[C@@](CC=C(C)C)(C(=O)C(C(=O)c4ccc(OS(=O)(=O)c5ccc(C)cc5)c(OS(=O)(=O)c5ccc(C)cc5)c4)=C2OC1(C)C)C3=O
IC50 [41]: > 20 µM
